Test results from patent US9101579B2, “Inhibition of drug resistant cancer cells” (Celgene Corporation, priority 2012, dated 2015).
Entries after “also recorded” stand apart in the source; their conditions may differ.

What was measured:
[1] = test system: HCC827 non-small cell lung cancer cell line; assay: Drug treatment and CellTiter-Glo cell viability assay, emergence of drug-tolerant expanded persisters (DTEP) in HCC827 cells; format: cell-based
Experimental: (§1) The M14 melanoma and HCC827 non-small cell lung cancer cell (NSCLC) cell lines were purchased from American Type Culture Collection (ATCC; Manassas, Va.). Cells were cultured at 37° C./5% CO2 in RPMI-1640 medium (ATCC) supplemented with 10% FBS. AZ628 and Erlotnib were purchased from Selleck Chemicals (Houston, Tex.) and reconstituted in DMSO to 20 mM. Romidepsin (Celgene Corporation) was reconstituted in DMSO to 10 μM. All drugs were stored at −30° C.
(§2) Romidepsin was used at a final concentration of 1 nM for HCC827 cells and 0.5 nM for M14 cells. Conditioned media were replaced with fresh drug-containing media every three days (“continuous Q3D” schedule). The Q3D schedule was evaluated continuously over a period of 27-45 days, and also for shorter durations ranging from 3-21 days.
(§3) Cell viability was monitored periodically over 27-45 days using CellTiter-Glo (CTG). On select days, an equal volume (1 mL) of CTG was added to each well of the 24-well plates. The plates, wrapped with aluminum foil, were incubated on a shaking platform for 10 minutes. A 200 μL aliquot from each well was transferred to a new well of 96-well plates. The SpectraMax L (Molecular Devices; Sunnyvale, Calif.) was used to measure luminescence.
Conditioned medium was replaced with fresh drug-containing medium every three days. Starting on day 12, the drug-containing medium also included 1 nM romidepsin. Cell viability was monitored on days 0, 15, and 37 using CellTiter-Glo (CTG).

M14 melanoma cell line = assay: Drug treatment and CellTiter-Glo cell viability assay, emergence of drug-tolerant expanded persisters (DTEP) in M14 cells; format: cell-based; settings: for emergence of DTEPs, continuous co-treatment: 2 μM AZ628 + 0.5 nM (sub-lethal) romidepsin every 3 days, continuous schedule 45 days, FIG. 1
Experimental: as §1, §2, §3

C#Cc1cccc(Nc2ncnc3cc(OCCOC)c(OCCOC)cc23)c1 [Erlotinib]
cell death on treatment with Erlotinib alone ([1]; NSCLC (HCC827) cells, high concentration (100×IC50; 2 μM) Erlotinib, after 9 days): Massive cell death

C/C=C1\NC(=O)[C@H]2CSSCC/C=C/[C@H](CC(=O)N[C@H](C(C)C)C(=O)N2)OC(=O)[C@H](C(C)C)NC1=O [romidepsin, (1S,4S,7Z,10S,16E,21R)-7-ethylidene-4,21-bis(1-methylethyl)-2-oxa-12,13-dithia-5,8,20,23-tetrazabicyclo[8.7.6]tricos-16-ene-3,6,9,19,22-pentone]
emergence of DTEP, reduced romidepsin schedule (M14 melanoma cell line; M14 cells treated with 2 μM AZ628, romidepsin 0.5 nM every 3 days for 2 weeks, FIGS. 3A and 3B): prevented the emergence of DTEP | number of romidepsin doses sufficient to prevent emergence of DTEP (M14 melanoma cell line; M14 cells treated with 2 μM AZ628, romidepsin 0.5 nM every 3 days, FIGS. 3A and 3B): 5 doses | emergence of DTEPs, continuous co-treatment (M14 melanoma cell line; M14 cells): prevented the DTEP emergence | emergence of DTEPs, continuous co-treatment (M14 melanoma cell line; M14 cells, listed as romidespin): prevented the emergence of DTEPs | DTEP growth, short (6-hour) romidepsin exposure (wash-out) (M14 melanoma cell line; M14 cells, 2 μM AZ628, higher romidepsin concentration (0.5, 2 or 10 nM tested), 6-hour exposure on continuous schedule, FIG. 4A): sufficient to prevent DTEP growth | Erlotinib-resistant cells after delayed addition of romidepsin ([1]; HCC827 cells pretreated with 2 μM Erlotinib every 3 days, 1 nM romidepsin added from day 12, viability on days 0, 15, 37, FIG. 5): eliminated Erlotinib-resistant HCC827 cells | emergence of DTEPs, reduced romidepsin schedule ([1]; HCC827 cells treated with 2 μM Erlotinib, romidepsin 1.0 nM every 3 days for 2 weeks, FIG. 3C): prevented the emergence of DTEPs | number of romidepsin doses sufficient to prevent emergence of DTEP ([1]; HCC827 cells treated with 2 μM Erlotinib, romidepsin 1.0 nM every 3 days, FIG. 3C): 4 doses | emergence of DTEPs, continuous co-treatment ([1]; HCC827 cells, 2 μM Erlotinib + 1.0 nM (sub-lethal) romidepsin every 3 days, continuous schedule 27 days, FIG. 2): prevented the emergence of DTEPs; also recorded: prevented the DTEP emergence | DTEP growth, short (6-hour) romidepsin exposure (wash-out) ([1]; HCC827 cells, 2 μM Erlotinib, higher romidepsin concentration (1, 5 and 20 nM tested), 6-hour exposure on continuous schedule, FIG. 4B): sufficient to prevent DTEP growth

Cc1ccc(NC(=O)c2cccc(C(C)(C)C#N)c2)cc1Nc1ccc2ncn(C)c(=O)c2c1 [AZ628]
outgrowth of DTPs into DTEPs under continued AZ628 alone (M14 melanoma cell line; M14 cells, continued treatment with AZ628 2 μM every 3 days): yielding a large population of AZ628-resistant cells | cell death on treatment with AZ628 alone (M14 melanoma cell line; M14 cells, high concentration (100×IC50; 2 μM) AZ628, after 9 days): Massive cell death
